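Test compounds were applied to cells in 96-well plates for 48 hours at 5 doses. GI50 = concentration required for 50% inhibition of growth. The concentration for full growth arrest is given as TGI.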
Columns and labels:
Assay in all cases: NCI-60 cell line screen, 48 h; in the data active = GI50 below about 0.43 µM; inactive = the rest
U251 CNS = system: U251 CNS
EKVX NSCLC = system: EKVX NSCLC
SF-295 CNS = system: SF-295 CNS
SK-MEL-2 melanoma = system: SK-MEL-2 melanoma
NCI-H460 lung = system: NCI-H460 lung
SW-620 colon = system: SW-620 colon
786-0 renal = system: 786-0 renal
HCC-2998 colon = system: HCC-2998 colon
MDA-MB-231 breast = system: MDA-MB-231 breast
NCI-H522 lung = system: NCI-H522 lung
RXF 393 renal = system: RXF 393 renal
HCT-116 colon = system: HCT-116 colon
PC-3 prostate = system: PC-3 prostate
NCI-H23 lung = system: NCI-H23 lung
BT-549 breast = system: BT-549 breast
UO-31 renal = system: UO-31 renal
SNB-75 CNS = system: SNB-75 CNS
HOP-62 NSCLC = system: HOP-62 NSCLC
HS 578T breast = system: HS 578T breast
OVCAR-8 ovarian = system: OVCAR-8 ovarian
SK-OV-3 ovarian = system: SK-OV-3 ovarian
HOP-92 NSCLC = system: HOP-92 NSCLC
UACC-62 melanoma = system: UACC-62 melanoma
A549 NSCLC = system: A549 NSCLC
KM12 colon = system: KM12 colon
SNB-19 CNS = system: SNB-19 CNS
K-562 leukemia = system: K-562 leukemia
CAKI-1 renal = system: CAKI-1 renal
CCRF-CEM leukemia = system: CCRF-CEM leukemia
MCF7 breast = system: MCF7 breast
SK-MEL-28 melanoma = system: SK-MEL-28 melanoma
TK-10 renal = system: TK-10 renal
M14 melanoma = system: M14 melanoma
RPMI-8226 leukemia = system: RPMI-8226 leukemia
UACC-257 melanoma = system: UACC-257 melanoma
MDA-MB-435 = system: MDA-MB-435
HCT-15 colon = system: HCT-15 colon
SF-268 CNS = system: SF-268 CNS
NCI-H226 lung = system: NCI-H226 lung
OVCAR-4 ovarian = system: OVCAR-4 ovarian
HL-60(TB) leukemia = system: HL-60(TB) leukemia
MALME-3M melanoma = system: MALME-3M melanoma
SN12C renal = system: SN12C renal
OVCAR-5 ovarian = system: OVCAR-5 ovarian
HT29 colon = system: HT29 colon
SF-539 CNS = system: SF-539 CNS
ACHN renal = system: ACHN renal
MOLT-4 leukemia = system: MOLT-4 leukemia
IGROV1 ovarian = system: IGROV1 ovarian
T-47D breast = system: T-47D breast
LOX IMVI melanoma = system: LOX IMVI melanoma
COLO 205 colon = system: COLO 205 colon
A498 renal = system: A498 renal
SK-MEL-5 melanoma = system: SK-MEL-5 melanoma
OVCAR-3 ovarian = system: OVCAR-3 ovarian
NCI/ADR-RES ovarian = system: NCI/ADR-RES ovarian
DU-145 prostate = system: DU-145 prostate

COc1ccccc1C#Cc1ccccc1C#Cc1ccc(OCCCCCCOc2ccccc2C#Cc2ccccc2C#Cc2ccccc2OC)cc1
inactive: GI50 (U251 CNS) > 100 µM | GI50 (EKVX NSCLC) > 100 µM | GI50 (SF-295 CNS) > 100 µM | GI50 (SK-MEL-2 melanoma) > 100 µM | GI50 (NCI-H460 lung) > 100 µM | GI50 (SW-620 colon) > 100 µM | GI50 (786-0 renal) > 100 µM | GI50 (HCC-2998 colon) > 100 µM | GI50 (MDA-MB-231 breast) > 100 µM | GI50 (NCI-H522 lung) > 100 µM | GI50 (RXF 393 renal) > 100 µM | GI50 (HCT-116 colon) > 100 µM | GI50 (PC-3 prostate) > 100 µM | GI50 (NCI-H23 lung) > 100 µM | GI50 (BT-549 breast) > 100 µM | GI50 (UO-31 renal) > 100 µM | GI50 (SNB-75 CNS) > 100 µM | GI50 (HOP-62 NSCLC) > 100 µM | GI50 (HS 578T breast) > 100 µM | GI50 (OVCAR-8 ovarian) > 100 µM | GI50 (SK-OV-3 ovarian) > 100 µM | GI50 (HOP-92 NSCLC) 90.1 µM | GI50 (UACC-62 melanoma) > 100 µM | GI50 (A549 NSCLC) > 100 µM | GI50 (KM12 colon) > 100 µM | GI50 (SNB-19 CNS) > 100 µM | GI50 (K-562 leukemia) > 100 µM | GI50 (CAKI-1 renal) > 100 µM | GI50 (CCRF-CEM leukemia) > 100 µM | GI50 (MCF7 breast) > 100 µM | GI50 (SK-MEL-28 melanoma) > 100 µM | GI50 (TK-10 renal) > 100 µM | GI50 (M14 melanoma) > 100 µM | GI50 (RPMI-8226 leukemia) > 100 µM | GI50 (UACC-257 melanoma) > 100 µM | GI50 (MDA-MB-435) > 100 µM | GI50 (HCT-15 colon) > 100 µM | GI50 (SF-268 CNS) > 100 µM | GI50 (NCI-H226 lung) > 100 µM | GI50 (OVCAR-4 ovarian) > 100 µM | GI50 (HL-60(TB) leukemia) > 100 µM | GI50 (MALME-3M melanoma) > 100 µM | GI50 (SN12C renal) > 100 µM | GI50 (OVCAR-5 ovarian) > 100 µM | GI50 (HT29 colon) > 100 µM | GI50 (SF-539 CNS) > 100 µM | GI50 (ACHN renal) > 100 µM | GI50 (MOLT-4 leukemia) > 100 µM | GI50 (IGROV1 ovarian) > 100 µM | GI50 (T-47D breast) > 100 µM | GI50 (LOX IMVI melanoma) > 100 µM | GI50 (COLO 205 colon) > 100 µM | GI50 (A498 renal) > 100 µM | GI50 (SK-MEL-5 melanoma) > 100 µM | GI50 (OVCAR-3 ovarian) > 100 µM | GI50 (NCI/ADR-RES ovarian) > 100 µM | GI50 (DU-145 prostate) > 100 µM
> 100 µM: TGI (U251 CNS) | TGI (EKVX NSCLC) | TGI (SF-295 CNS) | TGI (SK-MEL-2 melanoma) | TGI (NCI-H460 lung) | TGI (SW-620 colon) | TGI (786-0 renal) | TGI (HCC-2998 colon) | TGI (MDA-MB-231 breast) | TGI (NCI-H522 lung) | TGI (RXF 393 renal) | TGI (HCT-116 colon) | TGI (PC-3 prostate) | TGI (NCI-H23 lung) | TGI (BT-549 breast) | TGI (UO-31 renal) | TGI (SNB-75 CNS) | TGI (HOP-62 NSCLC) | TGI (HS 578T breast) | TGI (OVCAR-8 ovarian) | TGI (SK-OV-3 ovarian) | TGI (HOP-92 NSCLC) | TGI (UACC-62 melanoma) | TGI (A549 NSCLC) | TGI (KM12 colon) | TGI (SNB-19 CNS) | TGI (K-562 leukemia) | TGI (CAKI-1 renal) | TGI (CCRF-CEM leukemia) | TGI (MCF7 breast) | TGI (SK-MEL-28 melanoma) | TGI (TK-10 renal) | TGI (M14 melanoma) | TGI (RPMI-8226 leukemia) | TGI (UACC-257 melanoma) | TGI (MDA-MB-435) | TGI (HCT-15 colon) | TGI (SF-268 CNS) | TGI (NCI-H226 lung) | TGI (OVCAR-4 ovarian) | TGI (HL-60(TB) leukemia) | TGI (MALME-3M melanoma) | TGI (SN12C renal) | TGI (OVCAR-5 ovarian) | TGI (HT29 colon) | TGI (SF-539 CNS) | TGI (ACHN renal) | TGI (MOLT-4 leukemia) | TGI (IGROV1 ovarian) | TGI (T-47D breast) | TGI (LOX IMVI melanoma) | TGI (COLO 205 colon) | TGI (A498 renal) | TGI (SK-MEL-5 melanoma) | TGI (OVCAR-3 ovarian) | TGI (NCI/ADR-RES ovarian) | TGI (DU-145 prostate)
